What all share (assay): relative viability (nuclei count vs DMSO), 5 days (fraction); higher = more cells survive
Compound in assay [1]: CC(O)(CS(=O)(=O)c1ccc(F)cc1)C(=O)Nc1ccc(C#N)c(C(F)(F)F)c1 [Bicalutamide] + C[C@]1(O)C[C@@H](c2nc(-c3ccc4ccc(-c5ccccc5)nc4c3)c3c(N)nccn32)C1 [Linsitinib] (partner 1 µM)
The gist of the method:
(§1)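 Dosing by pin tool came one day after lung cancer cell lines were seeded in 1536-well plates, using either one drug or a fixed anchor-drug dose plus five library-drug doses (not always all listed) in √10 steps. After 5 days, nuclei were counted on 4× images. Relative viability is treated-well nuclei count divided by vehicle-well nuclei count, and values are medians of duplicate plates.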

Compound in assay [2]: CC(O)(CS(=O)(=O)c1ccc(F)cc1)C(=O)Nc1ccc(C#N)c(C(F)(F)F)c1 [Bicalutamide] + Nc1ncn([C@H]2C[C@H](O)[C@@H](CO)O2)c(=O)n1 [Decitabine] (partner 2 µM)
An outline of the steps: as §1

Compound in assay [3]: CC(O)(CS(=O)(=O)c1ccc(F)cc1)C(=O)Nc1ccc(C#N)c(C(F)(F)F)c1 [Bicalutamide] + CC(=O)Nc1cccc(-n2c(=O)n(C3CC3)c(=O)c3c(Nc4ccc(I)cc4F)n(C)c(=O)c(C)c32)c1 [Trametinib] (partner 0.02 µM)
An outline of the steps:
as §1

Compound in assay [4]: C(C(=O)C(=O)O)Br [Bromopyruvate] + CCNC(=O)c1noc(-c2cc(C(C)C)c(O)cc2O)c1-c1ccc(CN2CCOCC2)cc1 [Luminespib] (partner 0.01 µM)
The gist of the method: as §1

On to NCI-H1734, for which the relative viability in assay [1] (first compound 0.08 µM) turned out to be 0.87; in assay [1] (first compound 0.253 µM), 0.76; in assay [1] (first compound 0.8 µM), 0.947; in assay [1] (first compound 2.53 µM), 0.863; in assay [2] (first compound 0.08 µM) it was 0.542; in assay [2] (first compound 0.253 µM), 0.453. For the same cell line, the relative viability was found to be 0.515 in assay [2] (first compound 0.8 µM); 0.558 in assay [2] (first compound 2.53 µM); 0.709 in assay [3] (first compound 0.08 µM); 0.531 in assay [3] (first compound 0.253 µM); 0.681 in assay [3] (first compound 0.8 µM); 0.663 in assay [3] (first compound 2.53 µM). Also, the relative viability was 0.174 in assay [4] (first compound 1 µM); 0.225 in assay [4] (first compound 3.162 µM); 0.212 in assay [4] (first compound 10 µM); 0.175 in assay [4] (first compound 31.62 µM); 0.201 in assay [4] (first compound 100 µM).
NCI-H1755: the relative viability in assay [1] (first compound 0.08 µM) is 0.99; in assay [1] (first compound 0.253 µM), 0.988; in assay [1] (first compound 0.8 µM) it was 1.02; in assay [1] (first compound 2.53 µM) it was 0.958; in assay [2] (first compound 0.08 µM), 0.737; in assay [2] (first compound 0.253 µM) it was 0.636. Moreover, the relative viability is 0.721 in assay [2] (first compound 0.8 µM); 0.741 in assay [2] (first compound 2.53 µM); 0.738 in assay [3] (first compound 0.08 µM); 0.774 in assay [3] (first compound 0.253 µM); 0.776 in assay [3] (first compound 0.8 µM); 0.751 in assay [3] (first compound 2.53 µM). In addition, the relative viability in assay [4] (first compound 1 µM) is 0.501; in assay [4] (first compound 3.162 µM), 0.516; in assay [4] (first compound 10 µM), 0.421; in assay [4] (first compound 31.62 µM) it was 0.466; in assay [4] (first compound 100 µM), 0.465.
As for NCI-H1792, the relative viability in assay [1] (first compound 0.08 µM) is 0.585; in assay [1] (first compound 0.253 µM) it was 0.412; in assay [1] (first compound 0.8 µM) it was 0.549; in assay [1] (first compound 2.53 µM), 0.48; in assay [2] (first compound 0.08 µM), 0.543; in assay [2] (first compound 0.253 µM), 0.466. Also, the relative viability in assay [2] (first compound 0.8 µM) was 0.618; in assay [2] (first compound 2.53 µM), 0.548; in assay [3] (first compound 0.08 µM), 0.439; in assay [3] (first compound 0.253 µM) it was 0.362; in assay [3] (first compound 0.8 µM) it was 0.542; in assay [3] (first compound 2.53 µM), 0.434. For the same cell line, the relative viability amounted to 0.664 in assay [4] (first compound 1 µM); 0.487 in assay [4] (first compound 3.162 µM); 0.53 in assay [4] (first compound 10 µM); 0.573 in assay [4] (first compound 31.62 µM); 0.423 in assay [4] (first compound 100 µM).
For NCI-H1793, the relative viability is 0.731 in assay [1] (first compound 0.08 µM); 0.568 in assay [1] (first compound 0.253 µM); 0.894 in assay [1] (first compound 0.8 µM); 0.686 in assay [1] (first compound 2.53 µM); 0.524 in assay [2] (first compound 0.08 µM); 0.574 in assay [2] (first compound 0.8 µM). Further, the relative viability in assay [2] (first compound 2.53 µM) is 0.423; in assay [3] (first compound 0.08 µM) it was 0.382; in assay [3] (first compound 0.8 µM), 0.448; in assay [3] (first compound 2.53 µM), 0.439; in assay [4] (first compound 1 µM) it was 0.207; in assay [4] (first compound 3.162 µM), 0.148. Moreover, the relative viability amounted to 0.145 in assay [4] (first compound 10 µM), 0.218 in assay [4] (first compound 31.62 µM) and 0.303 in assay [4] (first compound 100 µM).
For the cell line NCI-H1915, the relative viability in assay [1] (first compound 0.08 µM) was determined as 1.11; in assay [1] (first compound 0.253 µM), 1.13; in assay [1] (first compound 0.8 µM), 1.1; in assay [1] (first compound 2.53 µM), 1.03; in assay [2] (first compound 0.08 µM), 0.28; in assay [2] (first compound 0.253 µM), 0.26. Also, the relative viability came to 0.282 in assay [2] (first compound 0.8 µM); 0.278 in assay [2] (first compound 2.53 µM); 0.338 in assay [3] (first compound 0.08 µM); 0.288 in assay [3] (first compound 0.253 µM); 0.286 in assay [3] (first compound 0.8 µM); 0.229 in assay [3] (first compound 2.53 µM). The relative viability came to 0.673 in assay [4] (first compound 1 µM); 0.849 in assay [4] (first compound 3.162 µM); 0.925 in assay [4] (first compound 10 µM); 0.706 in assay [4] (first compound 31.62 µM); 0.781 in assay [4] (first compound 100 µM).

(Values after the supplement of paper PMC10307832.)
